The conditions of series [1]: Crystal; DTA.
The nature of series [2]: Molar enthalpy of transition or fusion. The following applies: Crystal; DSC.
The nature of series [3]: molar enthalpy of vaporization or sublimation. Particulars: 298.15 K; Crystal; Static calorimetry.

We go through three compounds from the NIST ThermoML archive (doi:10.1016/j.jct.2013.03.001).

± gives the expanded uncertainty stated by the source.

Regarding `Oc1cccnc1Cl` [2-chloro-3-hydroxypyridine], the Normal melting temperature in series [1] is 169.99 ± 0.41 °C. The “Molar enthalpy of transition or fusion” value in series [2] worked out at 6.39 ± 0.148 kcal/mol. The molar enthalpy in series [3] is 21.3 ± 0.43 kcal/mol.

`Oc1cncc(Cl)c1` [3-chloro-5-hydroxypyridine]: the Normal melting temperature in series [1] was determined as 159.76 ± 0.41 °C. For the same compound, in series [2], the “Molar enthalpy of transition or fusion” value was determined as 5.16 ± 0.139 kcal/mol. The molar enthalpy in series [3] was 23.8 ± 0.478 kcal/mol.

As to `O=c1cccc(Cl)[nH]1` [2(1H)-pyridinone, 6-chloro-], the Normal melting temperature in series [1] stood at 128.46 ± 0.39 °C. The “Molar enthalpy of transition or fusion” value in series [2] amounted to 4.39 ± 0.112 kcal/mol. The molar enthalpy in series [3] turned out to be 21.9 ± 0.311 kcal/mol.
